Assay results from patent US20210236467A1, “DANTROLENE FORMULATIONS AND METHODS OF THEIR USE” (EAGLE PHARMACEUTICALS, INC., priority 2018, published 2021).
≈ marks a conversion by molar mass, not a printed value.

Assays:
[1] = cited from earlier work
[2] = Solubility / concentration determination by UPLC of supernatant; assay type: physicochemical; conditions: organic solvent or mixture, thermodynamic from solid; saturated supernatant, room temperature, propylene glycol
Procedure: (§1) 11.2 mgs of dantrolene acid was added to 224 uL of PEG400. […] The tube was centrifuged for 5 min at 15,000 rpm at room temperature to separate the sample into supernatant (dantrolene acid in solution) and pellet (insoluble material). The supernatant was transferred into a clean tube and diluted 100-, 200- and 400-fold in 25% acetonitrile for analysis by UPLC as described below.
as §1, with “16.3” for “11.2”, “326” for “224”, “propylene glycol.” for “PEG400.”, “50-, 100-” for “100-, 200-”, “200-fold” for “400-fold”, “below. The solubility of dantrolene acid in propylene glycol was calculated as ˜0.8 mg/mL.” for “below.”
13.0 mgs of dantrolene acid was dissolved in 1.3 mL of PEG400, targeting 10 mg/mL dantrolene acid. […]
Analysis was performed using an Agilent UPLC System equipped with a diode array detector and an Agilent C18 Zorbax column. Samples were analyzed using a gradient method with mobile phase A containing 0.1% trifluoroacetic acid in water and mobile phase B containing 0.1% trifluoroacetic acid in acetonitrile. […] A 10 uL sample was injected and the analytes were detected by UV at 385 nm. […] Peak areas were determined by manual integration. […]

[3] = Effective pH determination (10-fold dilution of non-aqueous sample in water); assay type: physicochemical; conditions: for effective pH of 10 mg/mL samples in PEG400: Example 3, target 10 mg/mL in PEG400, 10-fold dilution in water, ratios acid:sodium by volume; for pH of the supernatant (effective pH): 10-fold dilution in water
Procedure: The pH of the supernatant was measured by making a 10-fold dilution of the supernatant in water.
The effective pH of the supernatant was measured by making a 10-fold dilution of the supernatant in water.
The effective pH of the dantrolene acid supernatant and dantrolene sodium sample was measured by making 10-fold dilutions in water, per the methods described elsewhere herein.
The effective pH of each sample was measured by making 10F dilutions in water. The pH values were recorded as follows—
Effective pH measurements were conducted at ambient room temperature, using a Thermo Scientific Orion Star A111 pH benchtop meter. The instrument was calibrated within one day of the effective pH measurement using phosphate buffers at pH 4, 7, and 10 (Hydrion Tri-Chek Buffer Capsule set).
Samples were prepared by diluting the non-aqueous/anhydrous sample 10 fold with water. The diluted sample was vortexed for about 10 to 15 seconds. Effective pH was measured using the pre-calibrated pH benchtop meter, directly after vortexing.
After each effective pH measurement, the pH bulb was rinsed with an appropriate rinse solution to remove the entire test sample from the bulb.

[4] = Dissolution and solution stability by visual inspection; assay type: physicochemical; conditions: for dissolution on visual inspection: target 10 mg/mL in PEG400, after vortexing
Procedure: 13.0 mgs of dantrolene acid was dissolved in 1.3 mL of PEG400, targeting 10 mg/mL dantrolene acid. 12.7 mgs of dantrolene sodium was dissolved in 1.27 mL of PEG400, targeting 10 mg/mL of dantrolene sodium. […] Both tubes were centrifuged for 5 min at 3,900 rpm at room temperature to separate the sample into supernatant (dantrolene acid or dantrolene sodium in solution) and pellet (insoluble material). […] The supernatant of the dantrolene acid sample was transferred into a clean tube. The dantrolene acid supernatant and the dantrolene sodium solution were diluted 100- and 200-fold in 25% acetonitrile for analysis on the UPLC as described below.
(§2) Dantrolene sodium (6.4 mg) was weighed into a glass vial and propylene glycol (0.128 mL) was added, using a positive displacement pipette to achieve a target concentration of 50 mg/mL of dantrolene sodium. The contents of the vials were mixed with a positive displacement pipette. Visual inspection confirmed that the solutions were clear. The sample was a stable solution for at about 2 days at room temperature, after which time, precipitate formed. The precipitate was 99.9% dantrolene, as determined using HPLC.
as §2, with “(6.2” for “(6.4”, “PEG400 (0.124” for “propylene glycol (0.128”, “that” for “that the”

[5] = Precipitation on dilution/addition of water; assay type: physicochemical
[6] = pH of aqueous slurry of dantrolene sodium; assay type: physicochemical; conditions: 43.5 mg in 43.5 mL of water
Procedure: 43.5 mgs of dantrolene sodium was slurried in 43.5 mL of water in a conical tube. The pH of the initial of the slurry was 9.89.

Row | solubility [2] [mg/mL] | effective pH of 10 mg/mL samples in PEG400 [3] | pH of the supernatant (effective pH) ([3]; PEG400 supernatant) | pH of the supernatant (effective pH) ([3]; propylene glycol supernatant) | dissolution on visual inspection [4] | behaviour of the 10-fold dilution in water ([5]; PEG400 supernatant) | behaviour of the 10-fold dilution in water ([5]; propylene glycol supernatant) | pH of the initial slurry [6] | time as stable solution before precipitate formed ([4]; 50 mg/mL in PEG400, room temperature) | time as stable solution before precipitate formed ([4]; 50 mg/mL in propylene glycol, room temperature) | visual inspection of solution ([4]; target 50 mg/mL in PEG400) | visual inspection of solution ([4]; target 50 mg/mL in propylene glycol) | effect of addition of 50 μL of water ([5]; 50 mg/mL in PEG400 (0.124 mL)) | effect of addition of 50 μL of water ([5]; 50 mg/mL in propylene glycol (0.128 mL)) | Structure (SMILES) | solubility in water [1]
1 | ~0.8 (≈ 2550 µM) | 4.95 | 4.88 | 5.73 | cloudy after vortexing | precipitated out quickly | precipitated out slowly |  |  |  |  |  |  |  | O=C1CN(/N=C/c2ccc(-c3ccc([N+](=O)[O-])cc3)o2)C(O)=N1 [dantrolene acid, 1-{[5-(4-nitrophenyl)-2-furyl]methylideneamino}imidazolidine-2,4-dione] | very poorly soluble in water
2 |  | 9.67 |  |  | completely dissolved |  |  | 9.89 | about 2 days | about 2 days | clear | clear | precipitation | precipitation | O=C1CN(/N=C/c2ccc(-c3ccc([N+](=O)[O-])cc3)o2)C(O)=N1 [dantrolene sodium] | 
